{"source": "patent US9629851B2", "about": "“ROCK in combination with MAPK pathway” (Stichting Het Nederlands Kanker Instituut—Antoni van …, priority 2013, dated 2017)", "key": {"[1]": {"tested_on": "BRAF mutant melanoma patients", "details": "cited from earlier work"}, "[2]": {"tested_on": "NRAS mutant melanoma patients", "details": "cited from earlier work"}, "[3]": {"tested_on": "NRAS mutant melanoma cells SK-MEL-147", "assay": "SK-MEL-147 xenograft in NOD/SCID mice", "format": "in vivo", "details": "GSK1120212 0.05 mg/kg or GSK269962A 10 mg/kg alone, oral gavage once daily", "protocol": "Melanoma cells (5*10^5 SK-MEL-147) were subcutaneously injected into both flanks of NOD/SCID mice. Tumor sizes were measured with a caliper and tumor volume was calculated by the formula (a*b^2)/2 with ‘a’ being the longest diameter and ‘b’ the respective perpendicular diameter of the tumor. After the tumors reached a size of 20-100 mm3, mice received by oral gavage either vehicle, GSK1120212 (MEKi), (0.05 mg/kg), 10 mg/kg GSK269962A (ROCKi) or both drugs. N=10 for each group, except for ROCKi n=8. Error bars represent standard error of the mean (SEM).\nSix to ten week old male NOD/SCID mice were subcutaneously injected with 5*10^5 cells into both flanks. After the tumors reached a size of 50-150 mm^3 mice were treated with 0.05 or 0.1 mg/kg MEK inhibitor (GSK1120212) and/or ROCK inhibitor (GSK266962A, 10 mg/kg). Both GSK1120212 and GSK269962A were applied by oral gavage (in 5% Tween80, 3.25% ethanol, DMSO for GSK1120212 and in 10% Tween80, 6.5% ethanol, 10% DMSO for GSK266962A). Tumors were measured twice a week with a caliper. Tumor volume was calculated by the formula (a*b2)/2, with ‘a’ being the longest diameter and b′ the respective perpendicular diameter of the tumor. Mice were euthanized by CO2 when tumors reached a volume of 1 cm3, according to a protocol approved by the Institutional Animal Experiment Ethics Committee. […]"}, "[4]": {"tested_on": "NRAS mutant melanoma cell lines", "assay": "short-term viability assay (CellTiter-Blue, 3 days)", "format": "cell-based, human", "details": "treatment-naïve NRAS mutant melanoma cell lines; ROCK inhibitor added to MAPK/ERK pathway inhibitor", "experimental": "FIG. 1A: NRAS mutant melanoma cell lines are sensitive to combinations of ROCK and MEK or ERK inhibitors; Cells were treated with a dilution series of ROCK inhibitor (left panel), MEK inhibitor (middle panel) or ERK inhibitor (right panel) either alone or in combination with MEK/ERK/ROCK inhibitor as indicated. After 3 days total cell numbers were determined with a Cell Titer-Blue assay. The y-axis represents the percentage of living cells.\n(§1) For short-term viability assays of inhibitors, cells were plated in 96-well format and treated on the next day with a dilution range of one inhibitor with or without a second inhibitor with a concentration as mentioned in the figure. After 3 days, cells were incubated with CellTiter-Blue (Promega) and fluorescence was measured with a TECAN Infinite M200 microplate reader. For proliferation assays, equal cell numbers were plated on 6 well dishes. The next day, cells were treated with one or more inhibitors and refreshed with medium with inhibitors every 3-4 days. […]\nTo model inhibitor sensitivity of treatment-naïve NRAS mutant melanoma we made use of a panel of human metastatic melanoma cell lines carrying activating mutations in NRAS codon 61 (R, K, N), including cell lines available in the prior art. […] Presence of the NRAS mutation and absence of exon 15 BRAF mutations has been determined by conventional sequencing. […]"}, "MEK": {"tested_on": "MEK", "details": "cited from earlier work"}, "c-Raf": {"target": "c-Raf (Homo sapiens, UniProt P04049)", "sequence (P04049 whole entry)": "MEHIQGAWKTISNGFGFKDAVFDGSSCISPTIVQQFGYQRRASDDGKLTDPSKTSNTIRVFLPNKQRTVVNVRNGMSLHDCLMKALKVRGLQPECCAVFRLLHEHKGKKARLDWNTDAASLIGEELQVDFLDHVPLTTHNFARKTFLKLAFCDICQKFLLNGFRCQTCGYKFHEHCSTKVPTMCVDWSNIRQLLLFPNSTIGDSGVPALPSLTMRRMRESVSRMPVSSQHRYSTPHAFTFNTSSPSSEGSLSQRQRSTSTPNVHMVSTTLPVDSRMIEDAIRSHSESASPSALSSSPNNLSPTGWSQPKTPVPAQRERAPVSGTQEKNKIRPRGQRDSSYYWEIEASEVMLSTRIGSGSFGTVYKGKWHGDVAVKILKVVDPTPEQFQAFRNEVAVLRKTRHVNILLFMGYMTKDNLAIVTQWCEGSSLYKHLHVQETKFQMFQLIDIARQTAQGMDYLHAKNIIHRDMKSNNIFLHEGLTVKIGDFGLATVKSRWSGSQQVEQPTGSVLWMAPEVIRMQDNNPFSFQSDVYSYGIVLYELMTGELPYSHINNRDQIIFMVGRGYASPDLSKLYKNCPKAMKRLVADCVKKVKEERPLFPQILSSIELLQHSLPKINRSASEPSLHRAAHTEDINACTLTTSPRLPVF", "details": "B-Raf less than c-Raf; cited from earlier work"}, "[5]": {"tested_on": "ERK inhibitor resistant sublines of BLM", "assay": "inhibitor sensitivity of resistant sublines versus parental line", "format": "cell-based, human", "details": "sublines grown in 1 μM SCH772984", "experimental": "NRAS Mutation: Q61R BLM, SK-MEL-147. BRAF mutation: Mel 95.03, mel 888. All cell lines were cultured in Dulbecco's modified Eagle's Medium (DMEM, Gibco) supplemented with 9% fetal calf serum (Sigma) and 1% glutamine. To generate MEK and ERK inhibitor resistant sublines, cells were plated on 10 cm dishes. Medium containing 1 μM SCH772984 was added the next day and changed twice a week. After 2 weeks colonies were picked and expanded in the presence of the inhibitor. In addition, multiple colonies per 10 cm dish were trypsinized and expanded to obtain resistant pools.\nas §1, with “days. Cells were stained with crystal violet after 7-11 days of treatment.” for “days.”\nWe assessed sensitivity to a panel of other inhibitors including ROCK inhibitors but observed mainly slight differences."}}}
{"smiles": "Cn1cnc2c(F)c(Nc3ccc(Br)cc3F)c(C(=O)NOCCO)cc21", "note": "[MEK162]", "values": [{"measurement": "median time to develop resistance", "setting": "[1]", "result": 3.3, "unit": "months"}, {"measurement": "median time to develop resistance", "setting": "[2]", "result": 3.7, "unit": "months"}]}
{"smiles": "CCn1c(-c2nonc2N)nc2cnc(Oc3cccc(NC(=O)c4ccc(OCCN5CCOCC5)cc4)c3)cc21", "note": "[GSK269962A]", "values": [{"measurement": "effect as single agent", "setting": "[3]", "result": "only a weak effect as single agents"}, {"measurement": "sensitization to MEK or ERK inhibitors", "setting": "[4]", "result": "sensitizers"}]}
{"smiles": "O=C(NOCC1CC1)c1ccc(F)c(F)c1Nc1ccc(I)cc1Cl", "note": "[PDI 84352]", "values": [{"measurement": "specificity and potency compared to other known MEK inhibitors", "setting": "MEK", "result": "high degree of specificity and potency"}]}
{"smiles": "Cc1ccc(NC(=O)c2cccc(N(C)C)c2)cc1NC(=O)c1ccc(O)cc1", "note": "[ZM 336372]", "values": [{"measurement": "potency for B-Raf relative to c-Raf", "setting": "c-Raf", "result": "c-Raf, (B-Raf 10fold"}]}
{"smiles": "Oc1cccc(-c2nc(N3CCOCC3)c3oc4ncccc4c3n2)c1", "note": "[PI-103]", "values": [{"measurement": "sensitivity of resistant sublines compared with parental line", "setting": "[5]", "result": "as sensitive to the dual PI3K/mTOR inhibitor PI-103 as the parental line"}]}
{"smiles": "O=S(=O)(c1cccc2cnccc12)N1CCCNCC1", "note": "[Fasudil]", "values": [{"measurement": "sensitization to MEK or ERK inhibitors", "setting": "[4]", "result": "sensitizers"}]}
